Measured values from ChEMBL document CHEMBL5465560, “Selectivity Literature for EUbOPEN Chemogenomic Library” (2024).
One block for each compound: values may come before it.

How the values were obtained:
[1] = molecular target: T1, Serine/threonine-protein kinase D2 (Homo sapiens) (UniProt Q9BZL6); conditions: at 10 µM
T1 sequence (whole entry): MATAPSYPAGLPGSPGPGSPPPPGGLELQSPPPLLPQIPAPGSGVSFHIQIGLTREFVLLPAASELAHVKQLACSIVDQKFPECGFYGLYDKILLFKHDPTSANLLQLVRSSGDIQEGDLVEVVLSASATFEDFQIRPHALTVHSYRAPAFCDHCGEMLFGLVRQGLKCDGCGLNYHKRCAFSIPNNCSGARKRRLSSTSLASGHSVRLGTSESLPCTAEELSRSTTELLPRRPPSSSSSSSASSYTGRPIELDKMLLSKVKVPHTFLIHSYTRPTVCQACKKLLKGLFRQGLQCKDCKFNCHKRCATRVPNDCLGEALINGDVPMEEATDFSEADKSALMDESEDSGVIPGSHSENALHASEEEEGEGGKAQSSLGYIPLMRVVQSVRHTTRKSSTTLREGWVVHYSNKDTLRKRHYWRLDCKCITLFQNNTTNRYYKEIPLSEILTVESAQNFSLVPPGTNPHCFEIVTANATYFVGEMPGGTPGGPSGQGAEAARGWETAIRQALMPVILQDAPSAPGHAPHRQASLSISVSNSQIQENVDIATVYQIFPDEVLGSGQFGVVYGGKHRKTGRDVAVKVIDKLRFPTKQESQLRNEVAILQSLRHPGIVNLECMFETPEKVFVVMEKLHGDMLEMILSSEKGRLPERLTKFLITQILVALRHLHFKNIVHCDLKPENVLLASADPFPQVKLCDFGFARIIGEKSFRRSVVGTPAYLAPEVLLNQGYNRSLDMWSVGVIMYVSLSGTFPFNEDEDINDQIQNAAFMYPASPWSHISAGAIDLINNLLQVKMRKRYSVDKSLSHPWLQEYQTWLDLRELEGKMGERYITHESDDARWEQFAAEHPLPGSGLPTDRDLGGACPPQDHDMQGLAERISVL

[2] = molecular target: Tyrosine-protein kinase Fer (Homo sapiens) (UniProt P16591); assay: Selectivity interaction (ActivX KiNativ screen (kinase selectivity in THP-1 cell lysates)) EUB0000639a FER; assay type: subcellular; conditions: lysate, at 5 µM
[3] = molecular target: Tyrosine-protein kinase BTK (Homo sapiens, UniProt Q06187); assay: Selectivity interaction (Kinase panel (33PanQinase(R) Activity Assay)) EUB0000877a BTK
[4] = molecular target: Histone-lysine N-methyltransferase, H3 lysine-36 specific (Homo sapiens) (UniProt Q96L73); assay: Selectivity interaction (Methyltransferase screen (radiometric assays, panel of 8 PRMTs, 21 protein lysine methyltransferases, 3 DNA methyltransferases, and one RNA methyltransferase)) EUB0000272b NSD1; conditions: at 1 µM
[5] = molecular target: T1, Serine/threonine-protein kinase D2 (Homo sapiens); assay: Selectivity interaction (KinomeScan (DiscoverX)) EUB0000229b PRKD2; conditions: at 10 µM
[6] = molecular target: Macrophage colony-stimulating factor 1 receptor (Homo sapiens) (UniProt P07333); assay: Selectivity interaction (ProQinase) EUB0000171b CSF1R
[7] = molecular target: Protein kinase C beta type (Homo sapiens, UniProt P05771); assay: Selectivity interaction (ProQinase) EUB0000171b PRKCB; conditions: at 1 µM
[8] = molecular target: Mitogen-activated protein kinase 9 (Homo sapiens, UniProt P45984); assay: Selectivity interaction (Upstate Kinase Profiler service (Millipore)) EUB0000056c MAPK9; conditions: at 1 µM
[9] = molecular target: Mitogen-activated protein kinase kinase kinase kinase 5 (Homo sapiens) (UniProt Q9Y4K4); assay: Selectivity interaction (ActivX KiNativ screen (ex vivo kinase selectivity in human PBMCs)) EUB0001619a MAP4K5; assay type: cell-based; conditions: PBMC, at 1 µM
[10] = molecular target: T2, Tyrosine-protein kinase ZAP-70 (Homo sapiens) (UniProt P43403); assay: Selectivity interaction (KinomeScan (DiscoverX)) EUB0001619a ZAP70; conditions: at 1 µM
T2 sequence (whole entry): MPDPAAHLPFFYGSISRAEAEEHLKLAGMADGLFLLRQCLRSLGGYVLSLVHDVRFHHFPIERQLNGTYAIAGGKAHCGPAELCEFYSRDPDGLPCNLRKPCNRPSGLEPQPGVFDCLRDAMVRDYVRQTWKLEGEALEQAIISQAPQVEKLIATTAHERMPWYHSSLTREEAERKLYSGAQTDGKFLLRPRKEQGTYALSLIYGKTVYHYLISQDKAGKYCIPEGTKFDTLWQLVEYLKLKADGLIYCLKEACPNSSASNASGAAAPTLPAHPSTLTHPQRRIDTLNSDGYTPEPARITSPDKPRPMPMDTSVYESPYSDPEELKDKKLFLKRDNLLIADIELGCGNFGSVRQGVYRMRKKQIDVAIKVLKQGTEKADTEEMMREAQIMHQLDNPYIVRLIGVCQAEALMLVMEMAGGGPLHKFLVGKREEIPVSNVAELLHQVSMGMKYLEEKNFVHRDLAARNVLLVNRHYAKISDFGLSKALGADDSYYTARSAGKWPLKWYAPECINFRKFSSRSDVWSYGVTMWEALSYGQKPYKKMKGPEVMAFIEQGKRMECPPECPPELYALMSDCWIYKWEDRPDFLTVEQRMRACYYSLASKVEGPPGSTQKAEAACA

[11] = molecular target: Serine/threonine-protein kinase MARK2 (Homo sapiens) (UniProt Q7KZI7); assay: Selectivity interaction (KinomeScan (DiscoverX)) EUB0000618a MARK2; conditions: at 10 µM
[12] = molecular target: Fibroblast growth factor receptor 2 (Homo sapiens) (UniProt P21802); assay: Selectivity interaction (KinomeScan (DiscoverX)) EUB0000607a FGFR2; conditions: at 10 µM
[13] = molecular target: T2, Tyrosine-protein kinase ZAP-70 (Homo sapiens); assay: Selectivity interaction (SelectScreen profiling (Invitrogen)) EUB0000607a ZAP70; conditions: at 2 µM

Sequence of Macrophage colony-stimulating factor 1 receptor (Homo sapiens) (P07333 whole entry): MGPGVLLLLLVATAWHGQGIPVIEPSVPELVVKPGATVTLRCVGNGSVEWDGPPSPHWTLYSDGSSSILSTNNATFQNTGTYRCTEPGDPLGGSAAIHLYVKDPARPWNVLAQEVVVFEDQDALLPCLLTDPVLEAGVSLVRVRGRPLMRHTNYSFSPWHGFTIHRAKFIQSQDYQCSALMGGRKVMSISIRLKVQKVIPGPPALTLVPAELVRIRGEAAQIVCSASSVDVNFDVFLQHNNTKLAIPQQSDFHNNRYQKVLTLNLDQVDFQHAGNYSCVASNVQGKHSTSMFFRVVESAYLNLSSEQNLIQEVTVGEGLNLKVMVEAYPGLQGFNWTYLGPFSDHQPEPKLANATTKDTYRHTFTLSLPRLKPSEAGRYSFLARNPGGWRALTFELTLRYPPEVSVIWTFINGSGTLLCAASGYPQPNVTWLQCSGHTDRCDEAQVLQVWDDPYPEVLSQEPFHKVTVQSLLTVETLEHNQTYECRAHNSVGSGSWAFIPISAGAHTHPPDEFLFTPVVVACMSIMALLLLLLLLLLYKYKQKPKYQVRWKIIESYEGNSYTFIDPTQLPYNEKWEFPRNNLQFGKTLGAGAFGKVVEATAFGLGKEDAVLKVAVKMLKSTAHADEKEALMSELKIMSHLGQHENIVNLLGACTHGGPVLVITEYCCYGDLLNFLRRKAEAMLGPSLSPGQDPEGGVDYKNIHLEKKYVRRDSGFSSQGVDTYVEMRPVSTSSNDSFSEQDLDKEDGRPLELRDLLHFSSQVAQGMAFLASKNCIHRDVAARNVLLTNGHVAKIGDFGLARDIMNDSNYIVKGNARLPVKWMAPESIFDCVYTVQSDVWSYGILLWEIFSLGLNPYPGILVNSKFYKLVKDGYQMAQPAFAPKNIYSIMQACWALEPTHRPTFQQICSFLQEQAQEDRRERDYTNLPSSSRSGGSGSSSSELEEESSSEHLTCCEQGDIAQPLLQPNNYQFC
Sequence of Serine/threonine-protein kinase MARK2 (Homo sapiens) (Q7KZI7 whole entry): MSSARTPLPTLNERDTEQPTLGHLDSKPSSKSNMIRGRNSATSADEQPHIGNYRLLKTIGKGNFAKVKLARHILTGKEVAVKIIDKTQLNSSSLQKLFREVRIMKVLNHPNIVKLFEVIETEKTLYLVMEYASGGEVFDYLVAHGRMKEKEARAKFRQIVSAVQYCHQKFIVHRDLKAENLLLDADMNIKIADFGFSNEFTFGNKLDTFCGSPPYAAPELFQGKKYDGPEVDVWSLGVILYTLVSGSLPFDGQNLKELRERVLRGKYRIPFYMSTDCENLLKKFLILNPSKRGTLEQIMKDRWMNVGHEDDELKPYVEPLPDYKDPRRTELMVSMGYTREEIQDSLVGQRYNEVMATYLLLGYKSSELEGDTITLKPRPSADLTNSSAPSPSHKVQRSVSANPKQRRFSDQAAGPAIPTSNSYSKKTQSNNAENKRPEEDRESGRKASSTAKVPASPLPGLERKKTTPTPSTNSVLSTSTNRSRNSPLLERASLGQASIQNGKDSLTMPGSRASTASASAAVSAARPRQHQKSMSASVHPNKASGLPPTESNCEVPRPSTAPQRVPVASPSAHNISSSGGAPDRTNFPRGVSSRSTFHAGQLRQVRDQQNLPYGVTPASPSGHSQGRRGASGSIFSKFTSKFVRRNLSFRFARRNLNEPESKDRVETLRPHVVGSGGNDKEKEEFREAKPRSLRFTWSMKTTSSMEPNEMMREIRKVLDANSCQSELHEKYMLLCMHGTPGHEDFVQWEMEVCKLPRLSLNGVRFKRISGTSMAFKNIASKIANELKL
Sequence of Histone-lysine N-methyltransferase, H3 lysine-36 specific (Homo sapiens) (Q96L73 whole entry): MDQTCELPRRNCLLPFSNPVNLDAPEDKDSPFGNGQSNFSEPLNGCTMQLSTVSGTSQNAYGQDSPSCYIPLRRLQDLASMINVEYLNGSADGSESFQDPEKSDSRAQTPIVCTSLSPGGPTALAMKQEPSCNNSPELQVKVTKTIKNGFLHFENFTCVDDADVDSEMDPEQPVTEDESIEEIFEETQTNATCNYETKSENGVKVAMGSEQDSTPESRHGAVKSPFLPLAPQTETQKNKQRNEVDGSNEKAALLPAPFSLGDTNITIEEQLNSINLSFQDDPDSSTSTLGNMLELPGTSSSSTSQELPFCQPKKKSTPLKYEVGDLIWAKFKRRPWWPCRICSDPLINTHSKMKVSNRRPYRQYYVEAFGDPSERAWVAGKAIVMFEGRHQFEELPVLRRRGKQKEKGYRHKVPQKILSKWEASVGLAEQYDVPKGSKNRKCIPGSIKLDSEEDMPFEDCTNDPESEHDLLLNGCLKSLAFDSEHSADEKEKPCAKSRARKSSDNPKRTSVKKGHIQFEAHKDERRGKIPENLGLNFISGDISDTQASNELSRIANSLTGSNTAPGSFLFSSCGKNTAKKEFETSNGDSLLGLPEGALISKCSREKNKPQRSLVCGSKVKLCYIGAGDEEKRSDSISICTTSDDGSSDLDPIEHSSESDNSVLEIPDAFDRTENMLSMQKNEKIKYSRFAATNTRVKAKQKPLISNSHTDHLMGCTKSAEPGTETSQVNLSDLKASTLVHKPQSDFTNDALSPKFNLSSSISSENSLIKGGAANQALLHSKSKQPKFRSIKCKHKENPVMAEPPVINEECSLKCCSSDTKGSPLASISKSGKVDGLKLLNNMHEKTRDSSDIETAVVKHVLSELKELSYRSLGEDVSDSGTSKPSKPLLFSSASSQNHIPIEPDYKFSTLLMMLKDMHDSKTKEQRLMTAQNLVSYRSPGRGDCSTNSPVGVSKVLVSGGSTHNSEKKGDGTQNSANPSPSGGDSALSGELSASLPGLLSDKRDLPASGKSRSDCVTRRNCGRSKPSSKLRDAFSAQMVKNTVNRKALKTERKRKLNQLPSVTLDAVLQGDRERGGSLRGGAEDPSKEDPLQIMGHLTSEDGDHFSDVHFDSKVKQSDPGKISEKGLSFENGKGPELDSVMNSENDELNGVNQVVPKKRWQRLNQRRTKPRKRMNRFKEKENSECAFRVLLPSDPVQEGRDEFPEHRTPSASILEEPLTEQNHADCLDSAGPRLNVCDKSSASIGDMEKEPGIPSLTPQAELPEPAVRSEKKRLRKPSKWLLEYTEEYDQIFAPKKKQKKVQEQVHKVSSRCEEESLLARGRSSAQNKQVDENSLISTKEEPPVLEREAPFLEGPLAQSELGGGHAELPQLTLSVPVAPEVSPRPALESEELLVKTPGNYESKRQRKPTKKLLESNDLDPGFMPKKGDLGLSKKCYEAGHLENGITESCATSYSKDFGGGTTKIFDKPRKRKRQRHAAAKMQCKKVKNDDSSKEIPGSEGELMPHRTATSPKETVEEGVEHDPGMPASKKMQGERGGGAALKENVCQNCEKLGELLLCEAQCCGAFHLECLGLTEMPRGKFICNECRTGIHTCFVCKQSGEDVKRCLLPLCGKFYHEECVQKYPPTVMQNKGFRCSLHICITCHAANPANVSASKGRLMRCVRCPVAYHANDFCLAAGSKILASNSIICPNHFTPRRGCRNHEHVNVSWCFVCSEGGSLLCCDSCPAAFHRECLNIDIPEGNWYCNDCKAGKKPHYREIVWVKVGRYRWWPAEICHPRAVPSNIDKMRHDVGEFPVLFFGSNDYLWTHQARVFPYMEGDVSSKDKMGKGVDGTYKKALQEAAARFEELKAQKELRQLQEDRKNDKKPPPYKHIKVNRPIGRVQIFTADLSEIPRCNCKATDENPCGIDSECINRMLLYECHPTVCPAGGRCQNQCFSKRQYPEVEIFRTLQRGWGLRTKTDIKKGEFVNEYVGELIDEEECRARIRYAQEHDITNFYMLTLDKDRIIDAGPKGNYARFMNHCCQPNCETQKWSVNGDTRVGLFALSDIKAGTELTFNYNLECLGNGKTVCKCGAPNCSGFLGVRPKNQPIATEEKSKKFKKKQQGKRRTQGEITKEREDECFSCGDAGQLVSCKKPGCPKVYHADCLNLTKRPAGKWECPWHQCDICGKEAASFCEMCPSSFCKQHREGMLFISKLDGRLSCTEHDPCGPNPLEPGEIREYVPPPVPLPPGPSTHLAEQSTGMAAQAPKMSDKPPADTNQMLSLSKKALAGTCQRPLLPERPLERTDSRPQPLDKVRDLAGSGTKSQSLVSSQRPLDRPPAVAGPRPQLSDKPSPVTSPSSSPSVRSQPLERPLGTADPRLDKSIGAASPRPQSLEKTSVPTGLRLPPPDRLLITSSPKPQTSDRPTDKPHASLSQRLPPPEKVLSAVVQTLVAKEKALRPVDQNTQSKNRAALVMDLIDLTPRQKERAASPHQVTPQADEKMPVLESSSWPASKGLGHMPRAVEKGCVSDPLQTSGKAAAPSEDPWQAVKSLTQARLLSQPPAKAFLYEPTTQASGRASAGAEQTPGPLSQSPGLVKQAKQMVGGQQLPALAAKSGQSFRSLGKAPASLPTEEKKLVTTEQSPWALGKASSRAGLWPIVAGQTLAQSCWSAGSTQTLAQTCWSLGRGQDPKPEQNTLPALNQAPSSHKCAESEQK
Sequence of Tyrosine-protein kinase BTK (Q06187 whole entry): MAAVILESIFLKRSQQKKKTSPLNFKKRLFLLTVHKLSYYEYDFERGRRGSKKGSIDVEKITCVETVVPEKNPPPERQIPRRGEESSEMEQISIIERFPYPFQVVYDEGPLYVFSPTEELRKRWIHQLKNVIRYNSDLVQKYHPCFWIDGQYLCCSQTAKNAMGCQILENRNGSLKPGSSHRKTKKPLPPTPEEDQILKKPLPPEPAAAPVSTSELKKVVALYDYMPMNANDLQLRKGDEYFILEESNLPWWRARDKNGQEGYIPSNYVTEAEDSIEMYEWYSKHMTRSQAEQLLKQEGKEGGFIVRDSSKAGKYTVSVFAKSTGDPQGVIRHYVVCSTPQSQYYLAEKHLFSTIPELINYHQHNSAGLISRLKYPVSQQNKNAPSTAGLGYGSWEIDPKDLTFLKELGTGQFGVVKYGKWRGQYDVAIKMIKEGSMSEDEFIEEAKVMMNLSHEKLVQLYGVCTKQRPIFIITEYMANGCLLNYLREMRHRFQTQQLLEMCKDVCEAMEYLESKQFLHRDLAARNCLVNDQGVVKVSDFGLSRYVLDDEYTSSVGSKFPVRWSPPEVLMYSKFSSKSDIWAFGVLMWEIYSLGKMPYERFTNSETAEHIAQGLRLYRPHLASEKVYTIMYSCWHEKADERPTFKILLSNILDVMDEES

Structure (SMILES): Cc1cc([C@@H](C)Nc2ccccc2C(=O)O)c2nc(N3CCOCC3)cc(=O)n2c1 [AZD-6482]
- % of control [1]: 100%

- % of inhibition [2]: -6.1%
Structure (SMILES): CC[C@@H]1[C@H](F)C(=O)N[C@@H]1COc1nccc2cc(C(N)=O)c(OC)cc12 [ZIMLOVISERTIB]

- IC50 [3]: > 10 µM
Structure (SMILES): CCC(=O)N1CC[C@H](Nc2ncnc3c2CN(c2cnc(OC)c(C(F)(F)F)c2)CC3)C1 [LENIOLISIB]

- % of activity [4]: 97.7%
Structure (SMILES): Cc1cc(C)cc([C@H]2c3cc(C)ccc3NC(=O)CN2C(=O)c2ccc(Br)s2)c1

Structure (SMILES): COc1cc(N(C)c2ccnc3ccc(C(F)(F)F)cc23)cc(OC)c1OC
- % binding [5]: 90%

- % of control ([6]; at 1 µM): 106%
- % of control ([6]; at 5 µM): 69%
- % of control [7]: 103%
Structure (SMILES): C=CC(=O)Nc1cccc(C(=O)Nc2ccc(Nc3cc(-c4[nH]c(SC)nc4C)ccn3)cc2)c1

- % of inhibition [8]: -12%
Structure (SMILES): Cc1ccc(-c2ccc3c(ccc4sc5c(c43)NC[C@@H](C)NC5=O)n2)cn1

Structure (SMILES): N#Cc1cccc(-c2c[nH]c3ncnc(N4CCOCC4)c23)c1
- % of inhibition [9]: -13%
- % of control [10]: 96%

Structure (SMILES): O[C@H]1CC[C@H](Nc2ncc3nc(Nc4c(F)cc(F)cc4F)n([C@H]4CCOC4)c3n2)CC1
- % of control [11]: 100%

Structure (SMILES): CNC(=O)Nc1ccc(-c2nc(N3CC4CCC(C3)O4)c3cnn(C4CCC5(CC4)OCCO5)c3n2)cc1
- % of control [12]: 92%
- % of inhibition [13]: 7%
